Values joined by “and” are separate entries in the source; they are usually repeats but may differ in a detail not shown here. Equal values may be shown once.
Test system: 156681-154-R-J1-PDC complex spheroid viability
Experiment: Anticancer human tumor 156681-154-R-J1-PDC patient-derived melanoma cell line growth inhibition [CLK]
Conditions: for viability, T/C: stronger effect = lower value
Summary of the method: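 Multi-cell-type spheroids combined patient-derived tumor cells with HUVEC endothelial cells and human mesenchymal stem cells. Paired agents were dosed in half-log steps down from about clinical Cmax, or from 10 microM where Cmax was unknown.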

[1] = curve of first compound, second compound 0.0316 µM
[2] = curve of first compound, second compound 0.1 µM
[3] = curve of first compound, second compound 0.316 µM
[4] = curve of first compound, second compound 1 µM
[5] = curve of first compound, second compound 3.16 µM
[6] = curve of first compound, second compound 10 µM
[7] = second compound 0.0316 µM, first compound 0.0316 µM
[8] = second compound 0.0316 µM, first compound 0.1 µM
[9] = second compound 0.0316 µM, first compound 0.316 µM
[10] = second compound 0.0316 µM, first compound 1 µM
[11] = second compound 0.1 µM, first compound 0.0316 µM
[12] = second compound 0.1 µM, first compound 0.1 µM
[13] = second compound 0.1 µM, first compound 0.316 µM
[14] = second compound 0.1 µM, first compound 1 µM
[15] = second compound 0.316 µM, first compound 0.0316 µM
[16] = second compound 0.316 µM, first compound 0.1 µM
[17] = second compound 0.316 µM, first compound 0.316 µM
[18] = second compound 0.316 µM, first compound 1 µM
[19] = second compound 1 µM, first compound 0.0316 µM
[20] = second compound 1 µM, first compound 0.1 µM
[21] = second compound 1 µM, first compound 0.316 µM
[22] = second compound 1 µM, first compound 1 µM
[23] = second compound 3.16 µM, first compound 0.0316 µM
[24] = second compound 3.16 µM, first compound 0.1 µM
[25] = second compound 3.16 µM, first compound 0.316 µM
[26] = second compound 3.16 µM, first compound 1 µM
[27] = second compound 10 µM, first compound 0.0316 µM
[28] = second compound 10 µM, first compound 0.1 µM
[29] = second compound 10 µM, first compound 0.316 µM
[30] = second compound 10 µM, first compound 1 µM
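Note: spheroids exposed to the agents for seven days.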
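Throughout, for viability, T/C: 100% = DMSO vehicle control viability.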

C=C(F)C(=O)N1CCN(c2nc(OCC3CCCN3C)nc3c2CCN(c2cccc4cccc(Cl)c24)C3)CC1CC#N (stereo not drawn)
viability, T/C (compound 0.0316 µM): 62.4% and 97.8%
viability, T/C (compound 0.1 µM): 68.8% and 78%
viability, T/C (compound 0.316 µM): 85% and 95.9%
viability, T/C (compound 1 µM): 51.9% and 90.4%
viability, T/C (compound 3.16 µM): 11.4% and 28.5%
viability, T/C (compound 10 µM): 1.93% and 0.2%
IC50 (curve of compound): 1100 nM and 2120 nM

COc1ccc([C@@H](O)c2cc(-c3ncnc4cc(N5CCOCC5)ccc34)c(F)cc2Cl)nn1
viability, T/C (compound 0.0316 µM): 109% and 79.3%
viability, T/C (compound 0.1 µM): 80.7% and 73.7%
viability, T/C (compound 0.316 µM): 90.2% and 74.1%
viability, T/C (compound 1 µM): 74.8% and 48.6%
viability, T/C (compound 3.16 µM): 49.6% and 41.3%
viability, T/C (compound 10 µM): 24.8% and 27.6%
IC50 (curve of compound): 3380 nM and 1260 nM

COc1c(OCCCN2CCOCC2)ccc2c3n(c(=NC(=O)c4cnc(N)nc4)nc12)CCN3 + CN1CCN(c2cc(C(=O)Nc3cc4cc(-c5cnn(C)c5)ccc4cn3)ccn2)CC1
IC50 [1]: 16 nM
IC50 [2]: 12.9 nM
IC50 [3]: < 3.16 nM
IC50 [4]: < 3.16 nM
IC50 [5]: < 3.16 nM
IC50 [6]: < 3.16 nM
viability, T/C (second compound 0.0316 µM, first compound 0.00316 µM): 76.1%
viability, T/C (second compound 0.0316 µM, first compound 0.01 µM): 58.8%
viability, T/C [7]: 36.8%
viability, T/C [8]: 12.7%
viability, T/C [9]: 2.94%
viability, T/C [10]: 0.44%
viability, T/C (second compound 0.1 µM, first compound 0.00316 µM): 76.2%
viability, T/C (second compound 0.1 µM, first compound 0.01 µM): 55.5%
viability, T/C [11]: 29.6%
viability, T/C [12]: 10.3%
viability, T/C [13]: 1.15%
viability, T/C [14]: 0.6%
viability, T/C (second compound 0.316 µM, first compound 0.00316 µM): 18.1%
viability, T/C (second compound 0.316 µM, first compound 0.01 µM): 15%
viability, T/C [15]: 6.26%
viability, T/C [16]: 2.42%
viability, T/C [17]: 1.79%
viability, T/C [18]: 0.42%
viability, T/C (second compound 1 µM, first compound 0.00316 µM): 0.13%
viability, T/C (second compound 1 µM, first compound 0.01 µM): 0.95%
viability, T/C [19]: 0.12%
viability, T/C [20]: 0.27%
viability, T/C [21]: 0.51%
viability, T/C [22]: 0.4%
viability, T/C (second compound 3.16 µM, first compound 0.00316 µM): 0.05%
viability, T/C (second compound 3.16 µM, first compound 0.01 µM): 0.16%
viability, T/C [23]: 0.12%
viability, T/C [24]: 1.29%
viability, T/C [25]: 1.19%
viability, T/C [26]: 2.81%
viability, T/C (second compound 10 µM, first compound 0.00316 µM): 0.04%
viability, T/C (second compound 10 µM, first compound 0.01 µM): 1.39%
viability, T/C [27]: 2.94%
viability, T/C [28]: 0.1%
viability, T/C [29]: 0.81%
viability, T/C [30]: 0.71%

C=C(F)C(=O)N1CCN(c2nc(OCC3CCCN3C)nc3c2CCN(c2cccc4cccc(Cl)c24)C3)CC1CC#N (stereo not drawn) + CNC(=O)c1ccc(Nc2nc(OC3CCCC3)c3c(-c4ccc5nc(C)oc5c4)c[nH]c3n2)c(OC)c1
IC50 [1]: 1730 nM
IC50 [2]: 1110 nM
IC50 [3]: 1260 nM
IC50 [4]: 1020 nM
IC50 [5]: < 31.6 nM
IC50 [6]: < 31.6 nM
viability, T/C [7]: 70.9%
viability, T/C [8]: 92.6%
viability, T/C [9]: 76.5%
viability, T/C [10]: 87.4%
viability, T/C (second compound 0.0316 µM, first compound 3.16 µM): 15.2%
viability, T/C (second compound 0.0316 µM, first compound 10 µM): 0.17%
viability, T/C [11]: 45.3%
viability, T/C [12]: 56.5%
viability, T/C [13]: 54.9%
viability, T/C [14]: 59%
viability, T/C (second compound 0.1 µM, first compound 3.16 µM): 11.4%
viability, T/C (second compound 0.1 µM, first compound 10 µM): 2.23%
viability, T/C [15]: 46.7%
viability, T/C [16]: 49.5%
viability, T/C [17]: 77.3%
viability, T/C [18]: 66.5%
viability, T/C (second compound 0.316 µM, first compound 3.16 µM): 10%
viability, T/C (second compound 0.316 µM, first compound 10 µM): 0.09%
viability, T/C [19]: 59.3%
viability, T/C [20]: 53.3%
viability, T/C [21]: 43.9%
viability, T/C [22]: 50.9%
viability, T/C (second compound 1 µM, first compound 3.16 µM): 3.8%
viability, T/C (second compound 1 µM, first compound 10 µM): 0.09%
viability, T/C [23]: 48.2%
viability, T/C [24]: 33.5%
viability, T/C [25]: 37.1%
viability, T/C [26]: 42.6%
viability, T/C (second compound 3.16 µM, first compound 3.16 µM): 2.84%
viability, T/C (second compound 3.16 µM, first compound 10 µM): 0.11%
viability, T/C [27]: 39.2%
viability, T/C [28]: 37%
viability, T/C [29]: 28.7%
viability, T/C [30]: 40.4%
viability, T/C (second compound 10 µM, first compound 3.16 µM): 1.02%
viability, T/C (second compound 10 µM, first compound 10 µM): 4.8%
